Results taken from US20250388542A1, “ANALOGUES OF PENTAMIDINE AND USES THEREFOR” (Auransa Inc., priority 2018, published 2025).
pIC50: −log10 of the molar value.

How the values were obtained:
Human microsomal CL rate = format: in vitro ADME; conditions: human microsomes
NCI-H209 = experiment: CellTiter-Glo luminescent cell viability assay; format: cell-based; conditions: Homo sapiens
Description: (§1) The objective of this study is to investigate potential cell killing effect of Compounds 1-15 on 3 cancer cell lines. 50% inhibition concentration (IC50) was determined for these compounds in various cancer cell lines using CellTiter-Glo™ luminescent cell viability assay at different compound concentrations. Each cell line (e.g., NCI-H209; NCI-H69; and SW1271) was treated with Compounds 1-15 and culture medium contains 0.2% [v/v] DMSO vehicle control. All the cells were cultured in the media supplemented with 10-20% fetal bovine serum at 37° C., 5% CO2 and 95% humidity.

NCI-H69 = experiment: CellTiter-Glo luminescent cell viability assay; format: cell-based; conditions: Homo sapiens
Description: as §1

SW1271 = experiment: CellTiter-Glo luminescent cell viability assay; format: cell-based
Description: as §1

HEP3B2.7-1 = experiment: CellTiter-Glo cell viability, liver cell lines, 8 days; format: cell-based; conditions: HEP3B2.7-1, Table 5, similar experiment
Description: (§2) The objective of this study is to investigate the effect of Compound 1 on cell viability of various types of liver cancer. Ten (10) different liver cancer cell lines were employed in the study. Each liver cell line shown in Table 4 was treated with Compound 1, pentamidine, as reference control, a standard of care (cisplatin) and culture medium contains 0.2% [v/v] DMSO vehicle control and IC50 values were obtained as described above. The raw data values from the CellTiter-Glo™ cell viability assay expressed in relative luminescence units were normalized to the vehicle for each individual plate, and any reduction in luminescence indicated a decrease in viability (%). The data was analyzed in GraphPad PRISM using a non-linear sigmoidal plot with variable slope (asymmetric four-point linear regression), and an IC50 value for each compound was generated. The experiment tested pentamidine, compound 1, and standard-of-care control Cisplatin in full growth media for 8 days. Cells were initially treated with the test compounds on Day 0, and the cells were then replenished with fresh compound dilutions on Day 3. Pentamidine, Compound 1, and cisplatin were tested at 9 concentration points; 100, 33.33, 11.11, 3.70, 1.23, 0.41, 0.14, 0.05, and 0.02 μM (final DMSO concentration=0.5%). In particular, the IC50 values of pentamidine and Compound 1 were 0.8 and 0.6 μM in Hep3B-luc, respectively.

SK-HEP-1 = experiment: as above; format: cell-based; conditions: Homo sapiens, SK-HEP1, SK-HEP-1, Table 5, similar experiment
Description: as §2

[1] = Pharmacokinetics in liver and tissues after oral administration; format: in vivo, mice; conditions: p.o.
Description: Compound 1 (20 mg per kg), Compound 5 (10 mg per kg), and pentamidine (20 mg per kg) were tested for their PK. Tissue samples were collected as described above in Example 23. Briefly, blood samples (approximately […]) were collected under light isoflurane anesthesia from retro orbital plexus of mice at 0.5, 1, 3, 8, 48 and 72 hr. Plasma samples were separated by centrifugation at 2,000×g for 6 minutes and stored below −70±10° C. until bioanalysis. Immediately after collection of blood, animals were euthanized using excess CO2 asphyxiation and samples were collected from set of five mice at each time point. Collected tissue samples were immediately dipped and rinsed three times in ice cold PBS (for 5-10 seconds/rinse using ˜5-10 mL fresh PBS in disposable petri dish for each rinse) and dried on blotting paper. Tissue samples were homogenized using ice-cold phosphate buffer saline (pH7.4) and homogenates were stored below −70±10° C. until analysis. Total homogenate volume was three times the tissue weight except for liver samples, total homogenate volume was ten times the liver weight. Bioanalysis process was determined by fit-for-purpose LC-MS/MS method.
Calibration standards were prepared by spiking the test compound into blank plasma. 10 μL of working calibration standard was spiked into 190 μL of blank Mice Plasma or tissue homogenate to generate linearly spiked calibration standards. Calibrator concentrations were 5,000, 2,000, 1,000, 200, 100, 20, 10, 2 and 1 ng/mL. Calibration standard samples were processed along with the test samples. Twenty-five μL aliquots of plasma or tissue homogenate test samples were treated with 100 μL of acetonitrile containing internal standard (500 ng/mL Glipizide). Samples were vortexed for 5 minutes. Samples were centrifuged for 10 minutes at a speed of 4000 rpm at 4° C. Following centrifugation, 100 μL of clear supernatant was transferred in 96-well plates of and analyzed using LC-MS/MS. Chromatographic separation was achieved using a Kintex Polar column (C18, 100×4.6 mm, 5μ) and column oven temperature 45° C. For compound 1 diHCl the mobile phase A was water with 0.1% formic acid in Acetonitrile; mobile phase B was 10 mM ammonium formate. However, the mobile phase for pentamidine and Compound 5 mobile phase A was water with 0.1% formic acid and mobile phase B acetonitrile with 0.1% formic acid.
The gradient program for Compound 1 was as follows: 5% B (1-2.40 min), 90% B (2.60-3.00 min), and the initial for B was 90%. The retention rate was 1.47 per minute and the internal standard Glipizide was 1 per 9 minutes. The column was maintained at 45° C. For pentamidine and Compound 5, analysis was performed using 233 MassSpec by AB Sciex API5000 with Turbo Ion Spray interface operating in a positive ionization mode. Quantification was performed using multiple reaction monitoring (MRM) method with the transitions of (m/z) 328 à (m/z) 311 for Compound 5 and (m/z) 548 à (m/z) 366 for Edoxaban (internal standard). While, for pentamidine (m/z) 341 à (m/z) 324 and (m/z) 548 à (m/z) 366 for Verapmil (internal standard).
The gradient program for Compound 5 was as follows: 10% B (0-0.2 min), 95% B (1.5-2 min), the initial for B was 10% and it stopped at 2.6 mins. The flow rate was 0.5 mL/min. The gradient program for pentamidine was as follows: 10% B (0-0.2 min), 95% B (1.4-2 min), the initial for B was 10% and it stopped at 2.5 mins. The flow rate was 0.5 mL/min.

[2] = tested on: A549-NLR cells with anti-CD3 stimulated PBMC; experiment: Primary human T cell killing assay; format: cell-based
Description: In this study, A549-NLR cells were cultured alone or with PBMC's isolated from blood of three healthy donors in the presence of anti-CD3 stimulation. […] A549 growth was quantified by enumerating NucLight+ cells and A549 apoptosis by Caspase-3/7+ expression (colocalised to NucLight signal) every 2 hours for 96 hours.
All test conditions were applied to A549-NLR cells in the presence of stimulated PBMC. The number of A549 cells was tracked by IncuCyte live cell imaging over 96 hrs. The number of A549 cells at each time-point was counted and expressed as a percentage of the starting number (on a per well basis). At each time-point, the frequency of target cell apoptosis was quantified.

Compound | microsomal CLint (Human microsomal CL rate) [µL/min/mg] | pIC50 (NCI-H69) | also measured
N=C(N)c1ccc(OCCCCCOc2ccc(C(=N)N)cn2)cc1 [Compound 2, 6-((5-(4-carbamimidoylphenoxy)pentyl)oxy)nicotinimidamide] | 9.8 | 5.46 | pIC50 (NCI-H209): 5.03; pIC50 (SW1271): 5.80
N=C(N)c1ccc(OCCCCCOc2cnc(C(=N)N)nc2)cc1 [Compound 3, 5-((5-(4-carbamimidoylphenoxy)pentyl)oxy)pyrimidine-2-carboximidamide] |  | 5.54 | pIC50 (NCI-H209): 5.46; pIC50 (SW1271): 5.46
N=C(N)c1ccc(OCCCCCOc2cnc(C(=N)N)cn2)cc1 [Compound 4, 5-((5-(4-carbamimidoylphenoxy)pentyl)oxy)pyrazine-2-carboximidamide] |  |  | pIC50 (HEP3B2.7-1): 5.72; pIC50 (SK-HEP-1): 5.23
N=C(N)c1ccc(OCCCCOc2ccc(C(=N)N)nc2)cc1 [Compound 5, 5-(4-(4-carbamimidoylphenoxy)butoxy)picolinimidamide] | 3.9 | 6.06 | pIC50 (NCI-H209): 5.56; pIC50 (HEP3B2.7-1): 6.68; pIC50 (SK-HEP-1): 6.14; exposure to the liver vs pentamidine (20 mpk) ([1]; Compound 1 20 mpk, Compound 5 10 mpk): greater exposure to the liver than pentamidine; half-life relative to Compound 1 ([1]; liver): approximately 3 fold; half-life vs pentamidine ([1]; liver): higher half-life than pentamidine; tissue exposure ([1]; liver, small intestine, ileum): increased exposure in the liver as well as small intestine and ileum; exposure to the plasma ([1]; plasma vs other tissues): low in comparison to other tissues
N=C(N)c1cnc(OCCCCCOc2cnc(C(=N)N)cn2)cn1 [Compound 7, 5,5′-(pentane-1,5-diylbis(oxy))bis(pyrazine-2-carboximidamide)] |  | 6.09 | immune cell-mediated A549 cell apoptosis (Caspase-3/7+) ([2]; 0.3, 1 and 3 μM, three donors, 96 hours): enhancement of immune cell-mediated A549 cell apoptosis in 2 of 3 donors in a dose dependent manner; effect compared with positive control (IL-2) ([2]; highest concentration tested (3 μM)): comparable effect to the positive control (IL-2)
N=C(N)c1cccc(CCCCCCCc2cccc(C(=N)N)n2)n1 [Compound 8, 6,6′-(heptane-1,7-diyl)dipicolinimidamide] | 11 | 6.16 | 
N=C(N)c1cncc(CCCCCCCc2cncc(C(=N)N)c2)c1 [Compound 9, 5,5′-(heptane-1,7-diyl)dinicotinimidamide] | 13 | 5.28 | 
N=C(N)c1ccc(CCCCCCCc2ccc(C(=N)N)cn2)nc1 [Compound 10, 6,6′-(heptane-1,7-diyl)dinicotinimidamide] |  | 4.65 | 
N=C(N)c1cccc(OCCCCCOc2ccc(C(=N)N)nc2)c1 [Compound 11, 5-(5-(3-carbamimidoylphenoxy)pentyloxy)picolinimidamide] | 5.2 | 6.21 | 
N=C(N)c1ccc(OCCCCCOc2ccnc(C(=N)N)c2)cn1 [Compound 12, 4-((5-((6-carbamimidoylpyridin-3-yl)oxy)pentyl)oxy)picolinimidamide] | 7.5 | 5.80 | 
N=C(N)c1ccc(O[C@H]2CC[C@H](Oc3ccc(C(=N)N)nc3)CC2)cc1 [Compound 13, 5-(((1r,4r)-4-(4-carbamimidoylphenoxy)cyclohexyl)oxy)picolinimidamide] | 11 | 5.68 | 
N=C(N)c1ccc(O[C@H]2CC[C@@H](Oc3ccc(C(=N)N)nc3)CC2)cc1 [Compound 14, 5-(((1s,4s)-4-(4-carbamimidoylphenoxy)cyclohexyl)oxy)picolinimidamide] | 15.3 | 5.96 | 
N=C(N)c1cccc(OCCCCCOc2ccnc(C(=N)N)c2)c1 [Compound 15, 4-(5-(3-carbamimidoylphenoxy)pentyloxy)picolinimidamide] | 3.2 | 6.31 | 
N=C(N)c1ccc(OCCCCOc2ccc(C(=N)N)nc2)cn1 [Compound 16, 5,5′-(butane-1,4-diylbis(oxy))dipicolinimidamide] | 4.6 |  | 
N=C(N)c1ccc(OCCCOc2ccc(C(=N)N)nc2)cc1 [Compound 17, 5-(3-(4-carbamimidoylphenoxy)propoxy)picolinimidamide] | 8.1 |  | 
N=C(N)c1ccc(CC[C@@H]2CCC[C@H](CCc3ccc(C(=N)N)nc3)C2)cc1 [Compound 18, 5-{2-[(1R,3S)-3-[2-(4-carbamimidoylphenyl)ethyl]cyclohexyl]ethyl}pyridine-2-carboximidamide] | 9.5 |  | 
N=C(N)c1ccc(OCCCCCOc2ccnc(C(=N)N)c2)cc1 [Compound 19, 4-{[5-(4-carbamimidoylphenoxy)pentyl]oxy}pyridine-2-carboximidamide] | 27.7 |  | pIC50 (HEP3B2.7-1): 6.65; pIC50 (SK-HEP-1): 6.08
N=C(N)c1ccc(OCCCCCOc2ccc(C(=N)N)nc2)cn1 [Compound 20, 5-({5-[(6-carbamimidoylpyridin-3-yl)oxy]pentyl}oxy)pyridine-2-carboximidamide] | 4 |  | 
N=C(N)c1cc(OCCCCCOc2ccnc(C(=N)N)c2)ccn1 [Compound 21] | 5.1 |  | 
